Values after ≈ are worked out from the molar mass of the structure shown. Active and inactive are the calls of the source. The calls are words filed in the database; no cut-off is given here.
Test system: Candida albicans
Experiment: Antifungal activity against Candida albicans B311 after 24 to 48 hrs by twofold serial dilution method
Format: functional

| Structure (SMILES) | MIC [µg/mL] | Activity |
| --- | --- | --- |
| C[C@@H]1[C@H](O)[C@@H](C)/C=C/C=C/C=C/C=C/C=C/C=C/C=C/[C@H](O[C@@H]2O[C@H](C)[C@@H](O)[C@H](N)[C@@H]2O)C[C@@H]2O[C@](O)(C[C@@H](O)C[C@@H](O)[C@H](O)CC[C@@H](O)C[C@@H](O)CC(=O)O[C@H]1C)C[C@H](O)[C@H]2C(=O)O [AMPHOTERICIN B] | 0.39 (≈ 0.422 µM) |  |
| Cc1ccnc2c1-c1ccccc1C2=O | 3.12 (≈ 16 µM) |  |
| c1ccc2c(c1)-c1nccc3ccnc-2c13 [EUPOLAURIDINE] | 1.56 (≈ 7.64 µM) |  |
| Cc1ccnc2c1C(=O)c1ccccc1-2 |  | Active |
